According to PubChem BioAssay (NCI):
Where “and” joins values, the source holds several entries; their conditions need not be identical. Equal values may be shown once.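 These data come from cells grown in 96-well plates and exposed to compound for 48 hours at five concentrations. GI50 marks 50% less growth. TGI is the concentration that stops growth completely.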

Experiments:
Experiment in all cases: inhibition of tumour cell growth, NCI panel, 48 h
HCC-2998 colon = system: HCC-2998 colon
IGROV1 ovarian = system: IGROV1 ovarian
PC-3 prostate = system: PC-3 prostate
SR leukemia = system: SR leukemia
KM12 colon = system: KM12 colon
NCI-H226 lung = system: NCI-H226 lung
HL-60(TB) leukemia = system: HL-60(TB) leukemia
K-562 leukemia = system: K-562 leukemia
ACHN renal = system: ACHN renal
SK-OV-3 ovarian = system: SK-OV-3 ovarian
RXF 393 renal = system: RXF 393 renal
OVCAR-4 ovarian = system: OVCAR-4 ovarian
MALME-3M melanoma = system: MALME-3M melanoma
LOX IMVI melanoma = system: LOX IMVI melanoma
DU-145 prostate = system: DU-145 prostate
OVCAR-8 ovarian = system: OVCAR-8 ovarian
NCI-H522 lung = system: NCI-H522 lung
SNB-19 CNS = system: SNB-19 CNS
HCT-116 colon = system: HCT-116 colon
SF-539 CNS = system: SF-539 CNS
SK-MEL-28 melanoma = system: SK-MEL-28 melanoma
SNB-75 CNS = system: SNB-75 CNS
HOP-92 NSCLC = system: HOP-92 NSCLC
SF-295 CNS = system: SF-295 CNS
OVCAR-5 ovarian = system: OVCAR-5 ovarian
CCRF-CEM leukemia = system: CCRF-CEM leukemia
MDA-MB-435 = system: MDA-MB-435
A549 NSCLC = system: A549 NSCLC
TK-10 renal = system: TK-10 renal
RPMI-8226 leukemia = system: RPMI-8226 leukemia
SK-MEL-2 melanoma = system: SK-MEL-2 melanoma
786-0 renal = system: 786-0 renal
NCI-H23 lung = system: NCI-H23 lung
OVCAR-3 ovarian = system: OVCAR-3 ovarian
EKVX NSCLC = system: EKVX NSCLC
SN12C renal = system: SN12C renal
HCT-15 colon = system: HCT-15 colon
MDA-N = system: MDA-N
MDA-MB-231 breast = system: MDA-MB-231 breast
HS 578T breast = system: HS 578T breast
UACC-257 melanoma = system: UACC-257 melanoma
MCF7 breast = system: MCF7 breast
UO-31 renal = system: UO-31 renal
CAKI-1 renal = system: CAKI-1 renal
HOP-62 NSCLC = system: HOP-62 NSCLC
U251 CNS = system: U251 CNS
T-47D breast = system: T-47D breast
M14 melanoma = system: M14 melanoma
SK-MEL-5 melanoma = system: SK-MEL-5 melanoma
HT29 colon = system: HT29 colon
SF-268 CNS = system: SF-268 CNS
COLO 205 colon = system: COLO 205 colon
UACC-62 melanoma = system: UACC-62 melanoma
MOLT-4 leukemia = system: MOLT-4 leukemia
NCI-H460 lung = system: NCI-H460 lung
NCI/ADR-RES ovarian = system: NCI/ADR-RES ovarian
A498 renal = system: A498 renal

SMILES: CN(C)C(c1ccccc1)C1COC2Cc3ccccc3C1O2 (stereo not drawn)
- TGI (HCC-2998 colon): > 100 µM
- TGI (IGROV1 ovarian): > 100 µM
- TGI (PC-3 prostate): > 100 µM
- TGI (SR leukemia): > 100 µM
- TGI (KM12 colon): > 100 µM
- TGI (NCI-H226 lung): > 100 µM
- TGI (HL-60(TB) leukemia): > 100 µM
- TGI (K-562 leukemia): > 100 µM
- TGI (ACHN renal): > 100 µM
- TGI (SK-OV-3 ovarian): > 100 µM
- TGI (RXF 393 renal): > 100 µM
- TGI (OVCAR-4 ovarian): > 100 µM
- TGI (MALME-3M melanoma): > 100 µM
- TGI (LOX IMVI melanoma): > 100 µM
- TGI (DU-145 prostate): > 100 µM
- TGI (OVCAR-8 ovarian): > 100 µM
- TGI (NCI-H522 lung): > 100 µM
- TGI (SNB-19 CNS): > 100 µM
- TGI (HCT-116 colon): > 100 µM
- TGI (SF-539 CNS): > 100 µM
- TGI (SK-MEL-28 melanoma): > 100 µM
- TGI (SNB-75 CNS): 89 µM and 89.4 µM
- TGI (HOP-92 NSCLC): > 100 µM
- TGI (SF-295 CNS): > 100 µM
- TGI (OVCAR-5 ovarian): > 100 µM
- TGI (CCRF-CEM leukemia): > 100 µM
- TGI (MDA-MB-435): > 100 µM
- TGI (A549 NSCLC): > 100 µM
- TGI (TK-10 renal): > 100 µM
- TGI (RPMI-8226 leukemia): > 100 µM
- TGI (SK-MEL-2 melanoma): > 100 µM
- TGI (786-0 renal): > 100 µM
- TGI (NCI-H23 lung): > 100 µM
- TGI (OVCAR-3 ovarian): > 100 µM
- TGI (EKVX NSCLC): > 100 µM
- TGI (SN12C renal): > 100 µM
- TGI (HCT-15 colon): > 100 µM
- TGI (MDA-N): > 100 µM
- TGI (MDA-MB-231 breast): > 100 µM
- TGI (HS 578T breast): > 100 µM
- TGI (UACC-257 melanoma): > 100 µM
- GI50 (MCF7 breast): 84 µM and 23.6 µM
- TGI (MCF7 breast): > 100 µM
- TGI (UO-31 renal): > 100 µM
- TGI (CAKI-1 renal): > 100 µM
- TGI (HOP-62 NSCLC): > 100 µM
- TGI (U251 CNS): > 100 µM
- TGI (T-47D breast): > 100 µM
- TGI (M14 melanoma): > 100 µM
- TGI (SK-MEL-5 melanoma): > 100 µM
- TGI (HT29 colon): > 100 µM
- TGI (SF-268 CNS): > 100 µM
- TGI (COLO 205 colon): > 100 µM
- TGI (UACC-62 melanoma): > 100 µM
- TGI (MOLT-4 leukemia): > 100 µM
- TGI (NCI-H460 lung): > 100 µM
- TGI (NCI/ADR-RES ovarian): > 100 µM
- TGI (A498 renal): > 100 µM
